Laboratory results reported in US20150265633A1, “STEROID CONTAINING DRUG DELIVERY SYSTEM” (Allergan, Inc., priority 2007, published 2015).
≈ marks a conversion by molar mass, not a printed value.

How the values were obtained:
physchem = experiment: physchem
Description: Log P is the lipophilicity coefficient, where P is the octonol/water partition coefficient.

[1] = system: VEGF-induced BRB and BAB breakdown in rabbit eye; experiment: Rabbit model of VEGF-induced BRB and BAB breakdown, scanning ocular fluorophotometry, aqueous steroid suspensions (Example 1); format: in vivo; conditions: for inhibition of VEGF-induced BAB breakdown (iris leakage, anterior segment) / inhibition of VEGF-induced BRB breakdown (retinal leakage, posterior segment): 1 mg (100 μl of 10 mg/ml suspension) intravitreal, VEGF one month thereafter, fluorophotometry 48 hrs after VEGF; for block of VEGF-induced BAB breakdown (iris leakage) / block of VEGF-induced BRB breakdown (retinal leakage): rabbit, corticosteroid administered systemically or intravitreally
Method: An in vivo (rabbit eye) experiment was carried out with liquid glucocorticoid derivative formulations. Recombinant vascular endothelial growth factor (VEGF) was obtained from a supplier (R&D Systems). Female Dutch Belt rabbits were anaesthetized with isoflurane inhalation and topical 0.5% proparacaine hydrochloride, and intravitreal injection of one eye with 500 ng VEGF in sterile phosphate buffered saline (PBS) containing 0.1% bovine serum albumin was performed using a 28 gauge ½ inch needle. The other eye is given the same volume of the vehicle, without the VEGF.
The extent of VEGF-induced BRB and BAB breakdown of the blood retinal barrier and the blood aqueous barrier was measured by scanning ocular fluorophotemetry (Fluorotron Master, Ocumetrics Inc.); at various times following intravitreal injection. In this model a fluorescent label is administered intravenously, following by determination of the amount of fluorescenin in the anterior and posterior segment and an indication of iridial and retinal leakage, respectively.
VEGF injection mimics this pathological condition.
Sodium fluorescein in 1 ml saline was injected via the marginal ear vein at a concentration of 50 mg/kg, and ocular fluorescein levels in the vitreoretinal chamber and the anterior chamber was determined 50 minutes later.
Ten milligrams of each compound is added to 1 ml of sterile phosphate-buffered saline (PBS; ph 7.4). At day 0, 100 μl of a 10 mg/ml suspension of each steroid is injected into the vitreous of a rabbit eye. The PBS vehicle is injected into the other eye. VEGF is then injected at a pre-determined time (one month) thereafter, and BRB and BAB breakdown were measured by scanning ocular fluorophotometry 48 hrs later as described in Edelman et al., EXP.

cystic macular edema = experiment: Treatment of macular edema with a solid GD implant (Example 4); format: in vivo, human
Method: A person diagnosed with cystic macular edema treated by administration of a biodegradable drug delivery system administered to each eye of the patient. […] A similar implant is administered subconjunctivally to the patient's right eye. […] No increase in intraocular pressure is seen one week after administration.

Water solubility = format: physicochemical
[2] = system: wet age-related macular degeneration; experiment: Treatment of ARMD with a viscous GD formulation (Example 5); format: in vivo, human; conditions: intravitreal 100 μl hyaluronic acid solution with about 1000 μg crystals in suspension
Method: A person with wet age-related macular degeneration is treated with an intravitreal injection of 100 μl of a hyaluronic acid solution containing about 1000 μg of fluticasone propionate crystals in suspension.

[3] = after about 3 months from the surgery, 2 mg PLGA implant with about 1000 μg drug
[4] = 500 ng VEGF intravitreal, 48 hours after injection, 50 minutes after fluorescein

| Lipophicity (log P) (physchem) | logP (physchem) | Compound | inhibition of VEGF-induced BAB breakdown (iris leakage, anterior segment) ([1]; rabbit eye) | inhibition of VEGF-induced BRB breakdown (retinal leakage, posterior segment) ([1]; rabbit eye) | block of VEGF-induced BAB breakdown (iris leakage) [1] | block of VEGF-induced BRB breakdown (retinal leakage) [1] | further results |
| --- | --- | --- | --- | --- | --- | --- | --- |
| 4.40 | 4.4 | CCC(=O)OCC(=O)[C@@]1(OC(=O)CC)[C@@H](C)C[C@H]2[C@@H]3CCC4=CC(=O)C=C[C@]4(C)[C@@]3(Cl)[C@@H](O)C[C@@]21C [Beclomethasone dipropionate, beclomethasone 17,21-dipropionate] | no effect | completely blocks |  |  | duration of complete inhibition of VEGF-mediated responses ([1]; rabbit eye, 100 μl of 10 mg/ml intravitreal): greater than 3 months; appearance of the retina (cystic macular edema; [3]): appears normal; degeneration of the optic nerve (cystic macular edema; [3]): appears to be reduced; increase in intraocular pressure (cystic macular edema; one week after administration, 2 mg PLGA implant with about 1000 μg drug): No increase; reduction in retinal thickness (cystic macular edema; right eye (implant subconjunctival) versus left eye (intravitreal), 2 mg implant, about 1000 μg PLGA and about 1000 μg drug): more rapid reduction |
| 1.95 | 1.95 | C[C@@H]1C[C@H]2[C@@H]3CCC4=CC(=O)C=C[C@]4(C)[C@@]3(F)[C@@H](O)C[C@]2(C)[C@@]1(O)C(=O)CO [Dexamethasone] |  |  |  |  |  |

The remaining lines, values behind:

| Compound | Lipophicity (log P) (physchem) | logP (physchem) | inhibition of VEGF-induced BAB breakdown (iris leakage, anterior segment) ([1]; rabbit eye) | inhibition of VEGF-induced BRB breakdown (retinal leakage, posterior segment) ([1]; rabbit eye) | block of VEGF-induced BAB breakdown (iris leakage) [1] | block of VEGF-induced BRB breakdown (retinal leakage) [1] | further results |
| --- | --- | --- | --- | --- | --- | --- | --- |
| CCC(=O)O[C@]1(C(=O)SCF)[C@H](C)C[C@H]2[C@@H]3C[C@H](F)C4=CC(=O)C=C[C@]4(C)[C@@]3(F)[C@@H](O)C[C@@]21C [Fluticasone propionate] | 4.20 | 4.2 | no effect | completely blocks |  |  | solubility (Water solubility; water): 0.14 µg/mL (≈ 0.28 µM); quality of life reported by patient [2]: overall improvement; rate of neovascularization and related inflammation ([2]; within one month): acceptable reduction |
| CC1(C)O[C@@H]2C[C@H]3[C@@H]4CCC5=CC(=O)C=C[C@]5(C)[C@@]4(F)[C@@H](O)C[C@]3(C)[C@]2(C(=O)CO)O1 [Triamcinolone acetonide] |  |  | completely inhibited | completely inhibited | completely blocked | completely blocked | Water Solubility (Water solubility): 21 µg/mL; logP (physchem; octanol/water): 2.53 |
| C[C@H]1C[C@H]2[C@@H]3CCC4=CC(=O)C=C[C@]4(C)[C@@]3(Cl)[C@@H](O)C[C@]2(C)[C@@]1(O)C(=O)CO [beclomethasone] |  |  | inhibited | inhibited | completely blocked | completely blocked |  |
| VEGF |  |  |  |  |  |  | increase in fluorescein contained in the aqueous (BAB breakdown) compared to normal untreated rabbit eyes [1, 4]: approximately 6 fold; increase in fluorescein contained in the vitreous (BRB breakdown) compared to normal untreated rabbit eyes [1, 4]: approximately 18 fold |
